Results as given in ChEMBL document CHEMBL5154908, “Design, Synthesis, and Biological Characterization of Inhaled p38α/β MAPK Inhibitors for the Treatment of Lung Inflammatory Diseases” (J Med Chem, 2022).
In brackets after ≈: the same amount, converted by molar mass.

Assays:
[1] = Cmax in Sprague-Dawley rat plasma at 0.03 mg/kg, IT measured after 0.8 hrs by LC/MS/MS analysis; format: ADME, organism-based; parameters: dose 0.03 mg/kg, time 0.8 hrs, route it
[2] = Inhibition of LPS-stimulated TNFalpha release in human PBMC cells preincubated for 1 hr followed by LPS stimulation and measured after 18 hrs; format: functional, cell-based
[3] = Permeability across apical to basolateral side in human Caco-2 cells at 10 uM measured after 60 mins by LC/MS/MS analysis; format: ADME, cell-based; conditions: read-out: permeability
Rattus norvegicus [4] = assay: Antiinflammatory activity against LPS-induced Sprague-Dawley rat inflammatory model assessed as inhibition of neutrophil cells release in BALF at 0.3 mg/kg, IT measured after 12 hrs relative to control; format: functional
[5] = Selectivity index, ratio of drug concentration in Sprague-Dawley rat lung homogenate to IC50 for human p38alpha; format: tissue-based; conditions: tissue homogenate
[6] = Efflux ratio of permeability in human Caco-2 cells at 10 uM measured after 60 mins by LC-MS/MS analysis; format: ADME, cell-based
[7] = molecular target: T1, Mitogen-activated protein kinase 14 (Homo sapiens, UniProt Q16539); assay: Inhibition of human recombinant full length GST-tagged p38alpha expressed in Escherichia coli preincubated for 2 hrs followed by ATP addition and measured after 1 hr by Alpha screen assay
T1 sequence (Q16539 whole entry): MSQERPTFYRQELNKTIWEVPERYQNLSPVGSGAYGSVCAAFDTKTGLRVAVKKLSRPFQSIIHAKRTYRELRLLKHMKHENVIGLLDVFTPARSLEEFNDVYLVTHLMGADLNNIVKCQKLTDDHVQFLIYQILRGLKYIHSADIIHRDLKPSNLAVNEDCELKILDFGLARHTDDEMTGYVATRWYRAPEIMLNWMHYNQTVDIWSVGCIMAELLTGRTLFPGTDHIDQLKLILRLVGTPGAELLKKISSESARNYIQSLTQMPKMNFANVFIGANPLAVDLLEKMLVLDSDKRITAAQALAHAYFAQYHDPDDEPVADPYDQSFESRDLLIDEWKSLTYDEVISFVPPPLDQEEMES

[8] = Drug uptake in Sprague-Dawley rat lung homogenate at 0.03 mg/kg, IT measured after 24 hrs by LC/MS/MS analysis; format: ADME, organism-based; conditions: in vivo, other
[9] = molecular target: T1, Mitogen-activated protein kinase 14; assay: Displacement of SKF-86002 from human inactivated p38alpha assessed as dissociation half life incubated for 2 hrs by fluorescence based analysis
[10] = Solubility of the compound at >=1 mg/ml measured after 30 mins by HPLC analysis; format: physicochemical
[11] = Drug uptake in Sprague-Dawley rat lung homogenate at 0.03 mg/kg, IT measured after 7 hrs by LC/MS/MS analysis; format: ADME, organism-based; conditions: in vivo, other
[12] = Cmax in Sprague-Dawley rat lung homogenate at 0.03 mg/kg, IT measured after 0.8 hrs by LC/MS/MS analysis; format: ADME, organism-based; parameters: time 0.8 hrs, dose 0.03 mg/kg, route it
[13] = molecular target: T2, Mitogen-activated protein kinase 13 (Homo sapiens, UniProt O15264); assay: Inhibition of recombinant human full length His-tagged p38delta expressed in baculovirus expression system preincubated for 2 hrs followed by ATP addition and measured after 1 hr by Alpha screen assay
T2 sequence (O15264 whole entry): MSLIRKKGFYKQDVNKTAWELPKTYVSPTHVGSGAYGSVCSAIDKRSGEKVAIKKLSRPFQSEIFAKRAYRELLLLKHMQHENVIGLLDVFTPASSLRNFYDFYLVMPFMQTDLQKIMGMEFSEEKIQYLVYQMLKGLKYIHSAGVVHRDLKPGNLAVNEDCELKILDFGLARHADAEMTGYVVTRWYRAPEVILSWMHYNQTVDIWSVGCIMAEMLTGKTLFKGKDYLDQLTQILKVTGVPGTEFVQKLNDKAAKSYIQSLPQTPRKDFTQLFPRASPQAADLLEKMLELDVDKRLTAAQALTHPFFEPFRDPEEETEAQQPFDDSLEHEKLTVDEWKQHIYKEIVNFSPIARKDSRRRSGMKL

[14] = molecular target: Mitogen-activated protein kinase 11 (Homo sapiens, UniProt Q15759); assay: Inhibition of recombinant human full length His-tagged p38beta expressed in baculovirus expression system preincubated for 2 hrs followed by ATP addition and measured after 1 hr by Alpha screen assay
Sequence of Mitogen-activated protein kinase 11 (Q15759 whole entry): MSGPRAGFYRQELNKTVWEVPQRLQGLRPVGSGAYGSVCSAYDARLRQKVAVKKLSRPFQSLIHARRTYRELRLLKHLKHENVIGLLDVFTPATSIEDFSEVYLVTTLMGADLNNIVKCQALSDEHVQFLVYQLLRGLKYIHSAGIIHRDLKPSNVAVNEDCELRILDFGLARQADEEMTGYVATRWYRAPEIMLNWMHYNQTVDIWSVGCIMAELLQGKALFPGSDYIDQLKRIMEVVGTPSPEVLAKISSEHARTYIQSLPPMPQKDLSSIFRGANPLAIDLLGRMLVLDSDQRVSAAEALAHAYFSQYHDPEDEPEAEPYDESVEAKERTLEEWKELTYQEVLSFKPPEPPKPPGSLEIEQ

[15] = Protein binding in rat plasma at 10 uM incubated for 4 hrs by LC/MS/MS analysis; format: ADME, cell-free; conditions: read-out: PPB (converted)
[16] = Drug concentration in Sprague-Dawley rat lung homogenate at 0.3 mg/kg, IT measured after 24 hrs by LC/MS/MS analysis; format: ADME, organism-based; conditions: read-out: Ct
[17] = Protein binding in rat lung homogenate at 10 uM incubated for 4 hrs by LC/MS/MS analysis; format: ADME, tissue-based; conditions: read-out: PB (converted)
[18] = Metabolic stability in rat liver microsomes assessed as half life at 1 uM preincubated for 10 mins followed by NADPH addition and measured after 30 mins by LC/MS/MS analysis; format: ADME, Microsome; conditions: time 40 min
[19] = molecular target: T3, Mitogen-activated protein kinase 12 (Homo sapiens, UniProt P53778); assay: Inhibition of recombinant human full length His-tagged p38gamma expressed in baculovirus expression system preincubated for 2 hrs followed by ATP addition and measured after 1 hr by Alpha screen assay
T3 sequence (P53778 whole entry): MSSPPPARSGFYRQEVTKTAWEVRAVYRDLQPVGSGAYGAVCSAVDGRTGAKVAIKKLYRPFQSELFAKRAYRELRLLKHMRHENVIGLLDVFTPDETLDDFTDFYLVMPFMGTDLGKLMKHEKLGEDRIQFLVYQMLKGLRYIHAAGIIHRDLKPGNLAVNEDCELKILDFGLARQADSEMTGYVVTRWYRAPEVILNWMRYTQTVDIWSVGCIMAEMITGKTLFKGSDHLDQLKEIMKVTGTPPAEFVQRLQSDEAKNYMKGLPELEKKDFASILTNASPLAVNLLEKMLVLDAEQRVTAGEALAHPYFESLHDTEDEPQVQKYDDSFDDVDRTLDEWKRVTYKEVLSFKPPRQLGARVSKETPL

Rattus norvegicus [20] = assay: Antiinflammatory activity against LPS-induced Sprague-Dawley rat inflammatory model assessed as inhibition of neutrophil cells release in BALF at 0.1 mg/kg, IT preincubated for 2 hrs followed by LPS-stimulation and measured after 4 hrs relative to control; format: functional; parameters: scale not given: the % may be the effect or the level left; conditions: time 6 hrs
[21] = Cmax in Sprague-Dawley rat lung homogenate at 0.3 mg/kg, IT measured after 0.8 hrs by LC/MS/MS analysis; format: ADME, organism-based; parameters: time 0.8 hrs, dose 0.3 mg/kg, route it
[22] = Cmax in Sprague-Dawley rat plasma at 0.3 mg/kg, IT measured after 0.8 hrs by LC/MS/MS analysis; format: ADME, organism-based; parameters: time 0.8 hrs, dose 0.3 mg/kg, route it

Row | Structure (SMILES) | IC50 [2] [nM] | IC50 [7] [nM] | T1/2 [9] [h] | also measured
1 | CC(C)(C)c1cc(NC(=O)N[C@H]2CC[C@@H](Oc3ccc4nnc(N5CCC(O)CC5)n4c3)c3ccccc32)n(-c2ccc(CO)cc2)n1 | 14 | 0.4 | > 16 | –
2 | CC(C)(C)c1cc(NC(=O)NCc2ccccc2Sc2ccc3nnc(-c4ccccc4SCCO)n3c2)n(-c2ccc(O)c(Cl)c2)n1 [PF-03715455] | 8 | – | – | Activity (Rattus norvegicus [20]): 14%
3 | CN(C)CCOc1cc(-n2nc(C(C)(C)C)cc2NC(=O)N[C@H]2CC[C@@H](Oc3ccc4nnc(N5CCCCC5)n4c3)c3ccccc32)ccc1Cl | 1.4 | 0.2 | 3.5 | –
4 | C[C@H]1CCCCN1c1nnc2ccc(O[C@@H]3CC[C@H](NC(=O)Nc4cc(C(C)(C)C)nn4-c4cccc(OCCN5CCN(C)CC5)c4)c4ccccc43)cn12 | 2.1 | 0.3 | 5.1 | –
5 | C[C@H]1CCCCN1c1nnc2ccc(O[C@@H]3CC[C@H](NC(=O)Nc4cc(C(C)(C)C)nn4-c4ccn(CCN(C)C)n4)c4ccccc43)cn12 | 2.7 | 0.2 | 1.9 | –
6 | CN(C)CCOc1cccc(-n2nc(C(C)(C)C)cc2NC(=O)N[C@H]2CC[C@@H](Oc3ccc4nnc(N5CCCCC5)n4c3)c3ccccc32)c1 | 1.3 | 0.6 | 3.6 | –
7 | CC(C)c1nnc2ccc(O[C@@H]3CC[C@H](NC(=O)Nc4cc(C(C)(C)C)nn4C)c4ccccc43)cn12 | 3.9 | 0.3 | 0.07 | –
8 | CC(C)c1nnc2ccc(O[C@@H]3CC[C@H](NC(=O)Nc4cc(C(C)(C)C)nn4-c4cccc(OCCN(C)C)c4)c4ccccc43)cn12 | 9.1 | 0.8 | 0.89 | –
9 | C[C@H]1CCCCN1c1nnc2ccc(O[C@@H]3CC[C@H](NC(=O)Nc4cc(C(C)(C)C)nn4-c4cccc(OCCN(C)C)n4)c4ccccc43)cn12 | 5.8 | 2 | 2.9 | –
10 | C[C@H]1CCCCN1c1nnc2ccc(O[C@@H]3CC[C@H](NC(=O)Nc4cc(C(C)(C)C)nn4-c4cnn(CCN5CCN(C)CC5)c4)c4ccccc43)cn12 | 3.2 | 0.3 | > 16 | –
11 | CC(C)c1nnc2ccc(O[C@@H]3CC[C@H](NC(=O)Nc4cc(C(C)(C)C)nn4-c4ccc(O)c(Cl)c4)c4ccccc43)cn12 | 1.1 | 0.08 | 1.31 | –

Now from value to compound, other results behind:

Row | IC50 [2] [nM] | IC50 [7] [nM] | T1/2 [9] [h] | Structure (SMILES) | also measured
12 | 0.3 | 0.3 | > 16 | Cc1ccc(-n2nc(C(C)(C)C)cc2NC(=O)N[C@H]2CC[C@@H](Oc3ccc4nnc(N5CCCCC5)n4c3)c3ccccc32)cc1 | Cmax [1]: 60 nM; Papp A→B at 1 h, 10 µM [3]: 2.5 ×10⁻⁶ cm/s; inhibition in vivo at 0.3 mg/kg (Rattus norvegicus [4]): 20%; Ratio [5]: 40; efflux ratio at 1 h, 10 µM [6]: > 2.5; Drug uptake [8]: 19%; solubility at 0.5 h [10]: 30 µg/mL (≈ 48.5 µM); Drug uptake [11]: 21%; Cmax [12]: 3180 nM; IC50 [13]: > 10000 nM; IC50 [14]: 0.4 nM; fraction unbound at 4 h, 10 µM [15]: < 0.001; concentration at 24 h [16]: 12100 nM; fraction unbound at 4 h, 10 µM [17]: 0.001; half-life at 1 µM [18]: < 0.167 h; IC50 [19]: 16 nM
13 | 0.5 | 0.06 | 1.74 | CC(C)c1nnc2ccc(O[C@@H]3CC[C@H](NC(=O)Nc4cc(C(C)(C)C)nn4-c4ccccc4)c4ccccc43)cn12 | –
14 | 1 | 0.3 | > 16 | C[C@H]1CCCCC1c1nnc2ccc(O[C@@H]3CC[C@H](NC(=O)Nc4cc(C(C)(C)C)nn4-c4cccc(CN5CCN(C)CC5)c4)c4ccccc43)cn12 (some centres undefined) | –
15 | 0.8 | 0.4 | > 16 | C[C@H]1CCCCN1c1nnc2ccc(O[C@@H]3CC[C@H](NC(=O)Nc4cc(C(C)(C)C)nn4-c4cnn(CCN5CCCOCC5)c4)c4ccccc43)cn12 | –
16 | 0.3 | 0.1 | > 16 | Cc1ccc(-n2nc(C(C)(C)C)cc2NC(=O)N[C@H]2CC[C@@H](Oc3ccc4nnc(C5CCCC5)n4c3)c3ccccc32)cc1 | –
17 | 0.2 | 0.6 | > 16 | CC(C)(C)c1cc(NC(=O)N[C@H]2CC[C@@H](Oc3ccc4nnc(N5CCCCC5)n4c3)c3ccccc32)n(-c2cccc(CO)c2)n1 | –
18 | 1 | 0.3 | > 16 | Cc1ccc(-n2nc(C(C)(C)C)cc2NC(=O)N[C@H]2CC[C@@H](Oc3ccc4nnc(N5CCC(CO)CC5)n4c3)c3ccccc32)cc1 | Cmax [1]: 50 nM; Papp A→B at 1 h, 10 µM [3]: 3.3 ×10⁻⁶ cm/s; inhibition in vivo at 0.3 mg/kg (Rattus norvegicus [4]): 19%; Ratio [5]: > 300; efflux ratio at 1 h, 10 µM [6]: > 2.5; Drug uptake [8]: 23%; solubility at 0.5 h [10]: 10 µg/mL (≈ 15.4 µM); Drug uptake [11]: 99%; Cmax [12]: 5070 nM; IC50 [13]: 931 nM; IC50 [14]: 0.8 nM; fraction unbound at 4 h, 10 µM [15]: 0.001; concentration at 24 h [16]: 10300 nM; fraction unbound at 4 h, 10 µM [17]: 0.009; half-life at 1 µM [18]: 0.25 h; IC50 [19]: 10 nM
19 | 0.2 | 0.5 | > 16 | CC(C)(C)c1cc(NC(=O)N[C@H]2CC[C@@H](Oc3ccc4nnc(N5CCCCC5)n4c3)c3ccccc32)n(-c2ccc(Cl)c(O)c2)n1 | –
20 | 1 | 0.3 | > 16 | C[C@@H]1CCC[C@H](C)N1c1nnc2ccc(O[C@@H]3CC[C@H](NC(=O)Nc4cc(C(C)(C)C)nn4-c4cccc(OCCN(C)C)c4)c4ccccc43)cn12 | –
21 | 1.1 | 0.8 | 5 | CC(C)(C)c1cc(NC(=O)N[C@H]2CC[C@@H](Oc3ccc4nnc(N5CCCCC5)n4c3)c3ccccc32)n(-c2cccc(CN3CCNCC3)c2)n1 | –
22 | 1 | 0.1 | – | C[C@H]1CCCCN1c1nnc2ccc(O[C@@H]3CC[C@H](NC(=O)Nc4cc(C(C)(C)C)nn4-c4cnn(CCN(C)C)c4)c4ccccc43)cn12 | Papp A→B at 1 h, 10 µM [3]: 1.2 ×10⁻⁶ cm/s; Cmax [21]: 3040 nM; inhibition in vivo at 0.3 mg/kg (Rattus norvegicus [4]): 56%; Ratio [5]: 70; efflux ratio at 1 h, 10 µM [6]: > 2.5; Cmax [22]: 20 nM; Drug uptake [8]: 1.7%; solubility at 0.5 h [10]: 800 µg/mL (≈ 1180 µM); Drug uptake [11]: 7.2%; IC50 [13]: 4100 nM; fraction unbound at 4 h, 10 µM [15]: 0.014; concentration at 24 h [16]: 1400 nM; fraction unbound at 4 h, 10 µM [17]: 0.005; half-life at 1 µM [18]: < 0.0833 h
23 | 1 | 0.2 | > 16 | C[C@H]1CCCCN1c1nnc2ccc(O[C@@H]3CC[C@H](NC(=O)Nc4cc(C(C)(C)C)nn4-c4cccc(OCCN(C)C)c4)c4ccccc43)cn12 | Cmax [1]: 10 nM; Papp A→B at 1 h, 10 µM [3]: 1.4 ×10⁻⁶ cm/s; inhibition in vivo at 0.3 mg/kg (Rattus norvegicus [4]): 49%; Ratio [5]: 4.9; efflux ratio at 1 h, 10 µM [6]: > 2.5; Drug uptake [8]: 1.6%; solubility at 0.5 h [10]: 100 µg/mL (≈ 142 µM); Drug uptake [11]: 8.4%; Cmax [12]: 2700 nM; IC50 [13]: > 10000 nM; IC50 [14]: 1.3 nM; fraction unbound at 4 h, 10 µM [15]: 0.003; concentration at 24 h [16]: 970 nM; fraction unbound at 4 h, 10 µM [17]: 0.001; half-life at 1 µM [18]: 0.333 h; IC50 [19]: 2860 nM
